Data on seven compounds can be found in US5182289A, “Heterobicyclic compounds having antiinflammatory activity” (Schering Corporation, priority 1990, dated 1993).

Like-named read-outs stand apart in the source and are kept apart here.

Holding throughout (assay type): in vivo, male rats
In one assay the test system is 5-LO. Nature of the assay: Reversed Passive Arthus Reaction (RPAR) in the pleural cavity: LTE-4 in exudate. As for the experimental part:
(§1) Reversed Passive Arthus Reaction (RPAR) Assay
(§2) Groups of 4 male rats were injected in the penile vein with antigen (1 mg BSA in 0.2 mL of saline per rat) and 0.5 hour later injected in the pleural cavity with antibody (1.0 mg antibody protein in the IgG fraction of rabbit anti-BSA in 0.2 mL). […] After 4 hours the animals were killed with CO2, and the pleural cavities were opened and the exudate drained into a graduated conical glass centrifuge tube containing indomethacin (1.8 ug) and nordihydroguaiaretic acid (NDGA) (15 ug) to block ex vivo metabolite synthesis. The volume of the exudate was measured. The cavity was then washed out with saline-EDTA to achieve a final volume of 5.0 mL. The number of cells were determined in a Colulter Counter. The cells were spun-down (1000×g) and the exudate supernatant was added to 4 volumes of 95% ethanol and samples were kept on ice for 30 minutes. After removal of the protein precipitate (2,500×g) the ethanol extract of the exudate was dried under N2 and then stored at -20° C. For radioimmunoassay (RIA) analysis the samples were redissolved in water to a volume of 1 mL per rat. Utilizing internally spiked samples, recovery of TXB2 (tritiated thromboxane B2) and LTE4 (tritiated leukotriene-E4) from exudates was determined to be 84±2% (SEM) and 89±2% (N=4), respectively. Exudate samples were directly assayed in duplicate with the commercial ^3 H-TXB2 RIA kit from New England Nuclear and the ^3 H-LTC4 /D4 /E4 kit from Amersham. The assay was validated using reversed-phase HPLC analysis of LTs in the standard procedure described by M. W. Musch, R. W. Bryant, C. Coscollaela, R. F. Myers and M. I. Siegel, Prostaglandins, Vol. 29, pp 405-430 (1985). Samples of ethanol exudate extract were "spiked" with ^3 H-LTs to follow HPLC purification and recovery.

The next assay deals with CO (cyclooxygenase). Description: Reversed Passive Arthus Reaction (RPAR) in the pleural cavity: TXB-2 in exudate. The protocol:
as §1, §2

For assay [1], the system named is Reversed Passive Arthus Reaction (RPAR) in the pleural cavity. Nature of the assay: Reversed Passive Arthus Reaction (RPAR) in the pleural cavity: cells and fluid. To be noted: Rattus norvegicus, 4 h; for inhibition in vivo at 25 mg/kg: dose 25 mpk; for inhibition in vivo at 40 mg/kg: dose 40 mpk; for inhibition in vivo at 20 mg/kg: dose 20 mpk. As for the experimental part:
as §1, §2

Setting [2] is: read-out: RPAR-Pleural Cavity % Inhibition cells.
[3] abbreviates: read-out: RPAR-Pleural Cavity % Inhibition fluid.

As to `CC1(C)C(=O)N(c2cccc(Cl)c2)c2ncccc21` [Compound 5, 1-(3-chlorophenyl)-1,3-dihydro-3,3-dimethyl-2H-pyrrolo[2,3-b]pyridin-2-one], the “RPAR-Pleural Cavity % Inhibition LTE-4” value in the assay on 5-LO (dose 25 mpk) came out at 59%. Also, in the assay on CO (cyclooxygenase) (dose 25 mpk), the “RPAR-Pleural Cavity % Inhibition TXB-2” value is 62%. For the same compound, the figures for the inhibition in vivo at 25 mg/kg in assay [1] (setting [2]) and in assay [1] (setting [3]) were 51% and 49%, respectively.
As to `CC1(C)C(=O)N(c2ccc(Cl)c(Cl)c2)c2ncccc21` [Compound 6, 1-(3,4-dichlorophenyl)-1,3-dihydro-3,3-dimethyl-2H-pyrrolo[2,3-b]pyridin-2-one], the “RPAR-Pleural Cavity % Inhibition LTE-4” value with 5-LO (dose 25 mpk) is reported as 46%. The “RPAR-Pleural Cavity % Inhibition TXB-2” value in the assay with CO (cyclooxygenase) (dose 25 mpk) was 44%. Moreover, the inhibition in vivo at 25 mg/kg in assay [1] (setting [2]) is 26%; in assay [1] (setting [3]), 25%.
For `CN1C(=O)C(C)(C)c2cccnc21` [Compound 3, 1,3-dihydro-1,3,3-trimethyl-2H-pyrrolo[2,3-b]pyridin-2-one] the same measures were 62%, 17%, 69% and 53%.
For `CC1(C)C(=O)N(c2ccccc2)c2ncccc21` [Compound 1, 1,3-dihydro-3,3-dimethyl-1-phenyl-2H-pyrrolo[2,3-b]pyridin-2-one], the “RPAR-Pleural Cavity % Inhibition LTE-4” value in the assay on 5-LO (dose 40 mpk) is on record as 54%. Besides, in the assay on CO (cyclooxygenase) (dose 40 mpk), the “RPAR-Pleural Cavity % Inhibition TXB-2” value was 54%. The inhibition in vivo at 40 mg/kg came to 70% in assay [1] (setting [2]) and 60% in assay [1] (setting [3]).
With `COc1ccc(N2C(=O)C(C)(C)c3cccnc32)cc1` [Compound 8, 1,3-dihydro-3,3-dimethyl-1-(4-methoxyphenyl)-2H-pyrrolo[2,3-b]pyridin-2-one], the “RPAR-Pleural Cavity % Inhibition LTE-4” value in the assay on 5-LO (dose 25 mpk) is 0%. Further, in the assay on CO (cyclooxygenase) (dose 25 mpk), the “RPAR-Pleural Cavity % Inhibition TXB-2” value was found to be 34%. Further, the inhibition in vivo at 25 mg/kg in assay [1] (setting [2]) turned out to be 63%; in assay [1] (setting [3]), 42%.
Taken in the same sequence, the figures for `CC1(C)C(=O)N(c2ccc(Cl)cc2)c2ncccc21` [Compound 2, 1-(4-chlorophenyl)-1,3-dihydro-3,3-dimethyl-2H-pyrrolo[2,3-b]pyridin-2-one] were 87%, 78%, 73% and 83%.
In the case of `CC1(C)C(=O)N(c2ccc(F)cc2)c2ncccc21` [Compound 9, 1,3-dihydro-3,3-dimethyl-1-(4-fluorophenyl)-2H-pyrrolo[2,3-b]pyridin-2-one], in the assay on 5-LO (dose 20 mpk), the “RPAR-Pleural Cavity % Inhibition LTE-4” value was 36%. Also, the “RPAR-Pleural Cavity % Inhibition TXB-2” value in the assay on CO (cyclooxygenase) (dose 20 mpk) was 53%. For the same compound, the inhibition in vivo at 20 mg/kg in assay [1] (setting [2]) was 70%; in assay [1] (setting [3]), 43%.
